Experimental findings from patent US20100159030A1, “METHODS FOR DETECTING AND MODULATING THE SENSITIVITY OF TUMOR CELLS TO ANTI-MITOTIC AGENTS AND FOR MODULATING TURMORGENICITY” (NewSouth Innovations Pty Limited, priority 2007, published 2010) are described below.

SMILES strings stand for the structures. A value given as a limit tells only on which side of the number the result lay.

The test system of assay [1] is H460 cells. The assay can be described thus: Apoptosis induction, Annexin V-FITC flow cytometry. The class given is cell-based, Human. The note with it: 48 h. Here is the method:
Annexin V-FITC staining followed by flow cytometry analysis was performed to address whether the increase in the sub-G1 population following exposure to tubulin-binding agents in the βIII-tubulin siRNA treated cells was related to an increase in apoptosis induction. Apoptosis induction was determined by transfecting H460 cells with siRNA for 72 h and harvesting (adherent and suspension) cells 48 h after drug treatment, as previously described in Pasquier et al., Mol Cancer Ther 2004; 3:1301-10. Briefly, 1×10^5 cells were incubated with Annexin V-FITC and propidium iodide for 15 min in the dark (Becton-Dickinson), immediately followed by flow cytometry using a FACSCalibur (Becton-Dickinson). Cytogram analysis was performed using CellQuest® software.

The subject of assay [2] is H460 cells. Description: Cell cycle analysis by flow cytometry (propidium iodide). The note with it: 24 h. The class given is cell-based, Human. As for the experimental part:
The distribution of DNA content in βII or βIVb tubulin siRNA-transfected H460 cells was determined by flow cytometry. After 72 h transfection, transfected cells were exposed to vincristine at 5 nM or 40 nM concentrations for 24 h. On the day of analysis, both adherent and floating cells were harvested, washed with PBS and then stained with a solution containing 0.4% Triton® X-100 (Sigma), 50 μg/ml propidium iodide (Sigma), and 2 μg/ml DNase-free RNase (Roche, Indianapolis, Ind.) in the dark for 15 min at 37′C. DNA content was measured by a FACSCalibur flow cytometer (Becton Dickinson, San Diego, Calif.). The flow rate was <200 nuclei per second and 10,000 cells from each sample were analysed. Measurements were performed under the same instrumental settings. The CellQuest® program was used to quantitate the distribution of cells in each cell cycle phase: sub-G1 (apoptotic cells), G1, S and G2/M.
To determine whether βIII-tubulin silencing affects the cell cycle profiles, cell cycle analysis using flow cytometry was performed. Cell cycle analysis was determined by transfecting H460 cells with siRNA for 72 h and harvesting (adherent and suspension) cells 24 h after drug treatment. DNA content was stained for 15 min at 37° C. with a solution containing 0.4% Triton® X-100 (Sigma-Aldrich), 50 μg/ml propidium iodide (Sigma-Aldrich), and 2 μg/ml DNAse-free RNAse (Roche, Indianapolis, Ind.). The cells were then analyzed for cell cycle perturbation using a FACSCalibur (Becton-Dickinson, Franklin Lakes, N.J.). The CellQuest® program was used to quantitate the distribution of cells in each cell cycle phase: sub-G1(apoptotic cells), G1, S and G2/M.
(In general: Flow cytometry measures light scatter and fluorescence of single cells or particles in a stream.)

For the compound `CC(=O)O[C@H]1C(=O)[C@@]2(C)[C@H]([C@H](OC(=O)c3ccccc3)[C@]3(O)C[C@H](OC(=O)[C@H](O)[C@@H](NC(=O)c4ccccc4)c4ccccc4)C(C)=C1C3(C)C)[C@]1(OC(C)=O)CO[C@@H]1C[C@@H]2O` [Paclitaxel, paclitaxel], the “concentration from which apoptosis is induced” value in assay [1] (control siRNA treated cells) is listed as not below 5 nM; in assay [1] (βIII-tubulin siRNA treated cells), not below 1 nM. In assay [1] (βIII-tubulin siRNA vs control siRNA cells, paclitaxel 1, 2, 5 nM, cisplatin 0.4 or 1 μM), the “percentage of apoptotic cells” value is “significantly higher”. Moreover, the cell cycle profile result in assay [2] (control siRNA cells, 40 nM) is listed as “marked G2/M block”; in assay [2] (βIII-tubulin siRNA cells vs control siRNA, 5 nM), “higher sub-G1 (apoptotic cells) content”; in assay [2] (βIII-tubulin siRNA cells, 40 nM), “marked increase in the sub-G1 population”.
